Assay results published in patent publication US9775353B2, “Pesticidally active heterocyclic derivatives with sulphur containing substituents” (Syngenta Participations AG, priority 2014, dated 2017).

Key:
[1] = system: Tetranychus urticae (two-spotted spider mite); experiment: Example B12: Activity against Tetranychus urticae; format: in vivo; conditions: foliar, 192 h, application rate 400 ppm, bean leaf discs sprayed, mixed population (mobile stages), 8 days after infestation
Method: Example B12: Activity Against Tetranychus urticae (Two-Spotted Spider Mite)
Bean leaf discs on agar in 24-well microtiter plates were sprayed with aqueous test solutions prepared from 10,000 ppm DMSO stock solutions. After drying the leaf discs were infested with a mite population of mixed ages. The samples were assessed for mortality on mixed population (mobile stages) 8 days after infestation.

[2] = system: Diabrotica balteata (corn root worm); experiment: Example B3: Activity against Diabrotica balteata (larvae L2 on maize sprouts, feeding/contact, preventative); format: in vivo; conditions: 120 h, maize sprouts sprayed, larval mortality and growth regulation after 5 days
Method: Example B3: Activity Against Diabrotica balteata (Corn Root Worm) (Larvae L2 on Maize Sprouts, Feeding/Contact, Preventative) Maize sprouts, placed on an agar layer in 24 well micro titer plates were treated with test solutions by spraying. After drying, the MTPs were infested with L2 larvae (6-10 per well). After an incubation period of 5 days, samples were checked for larval mortality and growth regulation.

[3] = system: Spodoptera littoralis (Egyptian cotton leaf worm); experiment: Example B1: Activity against Spodoptera littoralis (larvicide, feeding/residual contact, preventive); format: in vivo; conditions: foliar, 72 h, cotton leaf discs sprayed, L1 larvae, mortality, repellent effect, feeding behaviour, growth regulation 3 days after treatment
Source text: Example B1: Activity Against Spodoptera littoralis (Egyptian Cotton Leaf Worm) (Larvicide, Feeding/Residual Contact Activity, Preventive) Cotton leaf discs were placed on agar in a 24-well microtiter plate and sprayed with test solutions. After drying, the leaf discs were infested with 5 L1 larvae. The samples were checked for mortality, repellent effect, feeding behaviour, and growth regulation 3 days after treatment (DAT).

[4] = system: Thrips tabaci (onion thrips); experiment: Example B11: Activity against Thrips tabaci; format: in vivo; conditions: foliar, 144 h, application rate 400 ppm, sunflower leaf discs sprayed, mixed ages, 6 days after infestation
Method: Example B11: Activity Against Thrips tabaci (Onion Thrips)
Sunflower leaf discs were placed on agar in 24-well microtiter plates and sprayed with aqueous test solutions prepared from 10,000 ppm DMSO stock solutions. After drying the leaf discs were infested with a thrips population of mixed ages. The samples were assessed for mortality 6 days after infestation.

[5] = system: Spodoptera littoralis (Egyptian cotton leaf worm); experiment: Example B7: Activity against Spodoptera littoralis (systemic activity); format: in vivo; conditions: 120 h, systemic via lettuce roots in agar, mortality, repellent effect, feeding behavior, growth regulation 5 days after infestation
Source text: Example B7: Activity Against Spodoptera littoralis (Egyptian Cotton Leaf Worm) (Systemic Activity) Test compounds were applied by pipette into 24 well plates and mixed with agar. Lettuce seeds were placed on the agar and the multi well plate is closed by another plate which contains also agar. After 7 days the roots have absorbed the compound and the lettuce has grown into the lid plate. The lettuce leaves were now cut off into the lid plate. Spodoptera eggs were pipetted through a plastic stencil on a humid gel blotting paper and the plate closed with it. The samples are checked for mortality, repellent effect, feeding behavior, and growth regulation 5 days after infestation.

[6] = system: Plutella xylostella (diamond back moth); experiment: Example B2: Activity against Plutella xylostella (larvicide, feeding/residual contact, preventive); format: in vivo; conditions: 120 h, artificial diet, L2 larvae, larval mortality, antifeedant, growth regulation after 5 days
Method: Example B2: Activity Against Plutella xylostella (Diamond Back Moth) (Larvicide, Feeding/Residual Contact Activity, Preventive) 24-well microtiter plate (MTP) with artificial diet was treated with test solutions by pipetting. After drying, the MTPs were infested with L2 larvae (10-15 per well). After an incubation period of 5 days, samples were checked for larval mortality, antifeedant and growth regulation.

[7] = system: Bemisia tabaci (cotton white fly); experiment: Example B5: Activity against Bemisia tabaci (adulticide contact activity, preventative); format: in vivo; conditions: foliar, 168 h, cotton leaf discs sprayed, adult white flies, mortality 7 DAT
Method: Example B5: Activity Against Bemisia tabaci (Cotton White Fly) (Adulticide Contact Activity, Preventative), Adult Cotton leaf discs were placed on agar in a 24-well microtiter plate and sprayed with test solutions. After drying, the leaf discs were infested with adult white flies. After an incubation period of 7 DAT, samples were checked for mortality and special effects (e.g. phytotoxicity).

[8] = system: Myzus persicae (green peach aphid); experiment: Example B8: Activity against Myzus persicae (feeding/residual contact, preventive, mixed population); format: in vivo; conditions: foliar, 144 h, sunflower leaf discs sprayed, mixed ages, mortality 6 DAT
Method: Example B8: Activity Against Myzus persicae (Green Peach Aphid) (Feeding/Residual Contact Activity, Preventive), Mixed Population Sunflower leaf discs were placed on agar in a 24-well microtiter plate and sprayed with test solutions. After drying, the leaf discs were infested with an aphid population of mixed ages. After an incubation period of 6 DAT, samples were checked for mortality and special effects (e.g. phytotoxicity).

[9] = system: Euschistus heros (neotropical brown stink bug); experiment: Example B10: Activity against Euschistus heros; format: in vivo; conditions: 120 h, soybean leaf sprayed, N-2 nymphs, mortality 5 days after infestation
Method: Example B10: Activity Against Euschistus heros (Neotropical Brown Stink Bug) Soybean leaf on agar in 24-well microtiter plates were sprayed with aqueous test solutions prepared from 10,000 ppm DMSO stock solutions. After drying the leaf were infested with N-2 nymphs. The samples were assessed for mortality 5 days after infestation.

Structure (SMILES)	mortality at 400 ppm [1]	pest or weed control at 400 ppm [2]	pest or weed control at 400 ppm [3]	mortality at 400 ppm [4]	pest or weed control at 12.5 ppm [5]	pest or weed control at 400 ppm [6]	pest or weed control at 400 ppm [7]	pest or weed control at 400 ppm [8]	pest or weed control at 400 ppm [9]	melting point
CCS(=O)(=O)c1cc(-c2ccccc2C(F)(F)F)cnc1-c1nc2cc(C(F)(F)F)ncc2n1C [Compound P4]	≥ 80%	> 80%	> 80%							
CCS(=O)(=O)c1cc(-c2cc(F)cc(F)c2)cnc1-c1nc2cc(C(F)(F)F)ncc2n1C [Compound P7]		> 80%	> 80%	≥ 80%	≥ 80%	> 80%	> 80%	> 80%	> 80%	
CCS(=O)(=O)c1cc(-c2ccc(F)cc2)cnc1-c1nc2cc(C(F)(F)F)ncc2n1C [Compound P13]		> 80%	> 80%	≥ 80%	≥ 80%	> 80%	> 80%	> 80%	> 80%	
CCS(=O)(=O)c1cc(-c2cccc(OC(F)(F)F)c2)cnc1-c1nc2cc(C(F)(F)F)ncc2n1C [Compound P25]		> 80%	> 80%		≥ 80%	> 80%	> 80%	> 80%	> 80%	
CCS(=O)(=O)c1cc(-c2ccc(C#N)cc2)cnc1-c1nc2cc(C(F)(F)F)ncc2n1C [Compound P36]	≥ 80%	> 80%	> 80%	≥ 80%	≥ 80%	> 80%	> 80%	> 80%	> 80%	
CCS(=O)(=O)c1cc(-c2ccccc2)cnc1-c1nc2cc(C(F)(F)F)ncc2n1C [Compound P39]										170 to 172 °C
CCS(=O)(=O)c1cc(-c2ccc(F)cc2F)cnc1-c1nc2cc(C(F)(F)F)ncc2n1C [Compound P41]										223 to 225 °C
CCS(=O)(=O)c1cc(-c2cc(Cl)cc(Cl)c2)cnc1-c1nc2cc(C(F)(F)F)ncc2n1C [Compound P42]										270 to 272 °C
CCS(=O)(=O)c1cc(-c2cc(Cl)c(F)c(Cl)c2)cnc1-c1nc2cc(C(F)(F)F)ncc2n1C [Compound P43]										235 to 237 °C
CCS(=O)(=O)c1cc(-c2cccc(C#N)c2)cnc1-c1nc2cc(C(F)(F)F)ncc2n1C [Compound P44]										257 to 259 °C
CCS(=O)(=O)c1cc(-c2ccc(OC(F)(F)F)cc2)cnc1-c1nc2cc(C(F)(F)F)ncc2n1C [Compound P45]										181 to 183 °C
